One data set has as its target T1, human mGlu2 receptor (Homo sapiens, UniProt Q14416).
T1 construct: expressed in transfected cells; host or cells: CHO cells (membrane preparation)
As to the kind of experiment: [35S]GTPγS binding assay (mGluR2 negative allosteric modulation). The conditions noted are these: for IC50: membranes from CHO cells transfected with human mGlu2 receptor, glutamate 60 μM, pIC50 = −log IC50 (M), read-out: GTPγS - hmGluR2 anGT pIC50 (converted); for Emax: relative maximal effect: maximal % inhibition relative to the control glutamate response, read-out: GTPγS - hmGluR2 anGT Emax. The data set is classed as biochemical. In a few lines: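 Negative allosteric modulation read as [35S]GTPγS (0.1 nM) incorporation over 30 min at 30 °C, expressed as % of the response to an EC80-equivalent glutamate concentration. Assay used 7 μg human mGlu2 CHO membrane protein in HEPES pH 7.4 buffer with NaCl, MgCl2, GDP and saponin; bound label collected by filtration.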
(Binding of GTPγS marks nucleotide exchange on a G protein.)

A word on the melting point: it is the temperature of the solid-liquid transition. One may read the Emax as the maximal effect, on the per cent scale that the assay sets.

T1 sequence (Q14416 19-872): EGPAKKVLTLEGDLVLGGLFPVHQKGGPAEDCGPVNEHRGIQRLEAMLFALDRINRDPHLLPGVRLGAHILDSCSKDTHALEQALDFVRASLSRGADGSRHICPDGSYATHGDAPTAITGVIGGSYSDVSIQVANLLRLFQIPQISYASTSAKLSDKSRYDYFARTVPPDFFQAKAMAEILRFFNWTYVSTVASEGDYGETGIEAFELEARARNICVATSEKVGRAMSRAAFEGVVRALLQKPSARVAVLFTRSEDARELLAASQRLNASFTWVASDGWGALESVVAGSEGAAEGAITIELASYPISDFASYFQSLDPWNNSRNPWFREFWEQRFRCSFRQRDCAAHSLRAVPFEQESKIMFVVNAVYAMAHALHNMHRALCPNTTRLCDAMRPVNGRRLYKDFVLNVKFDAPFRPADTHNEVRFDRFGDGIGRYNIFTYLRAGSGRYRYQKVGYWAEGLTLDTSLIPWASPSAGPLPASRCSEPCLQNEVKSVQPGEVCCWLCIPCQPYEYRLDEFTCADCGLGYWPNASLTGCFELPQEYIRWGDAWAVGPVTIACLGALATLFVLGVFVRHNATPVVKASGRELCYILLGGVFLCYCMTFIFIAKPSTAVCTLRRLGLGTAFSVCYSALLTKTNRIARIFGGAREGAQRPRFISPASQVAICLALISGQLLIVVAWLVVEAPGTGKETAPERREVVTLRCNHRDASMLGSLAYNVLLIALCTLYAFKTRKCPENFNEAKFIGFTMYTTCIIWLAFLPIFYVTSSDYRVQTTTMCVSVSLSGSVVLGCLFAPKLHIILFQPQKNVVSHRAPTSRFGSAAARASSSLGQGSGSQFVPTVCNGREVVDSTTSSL

`COCC1CN(c2ccc(Cl)c(Cl)c2)C(=O)c2c(-c3ccnc(C)c3)cnn21` (stereo not drawn) [compound 143] registered a melting point of more than 300 °C. Also, at human mGlu2 receptor, the IC50 was 2.45e-08 M and the Emax stood at 104%.

In turn, `COc1cc(-c2cnn3c2C(=O)N(c2ccc(C(F)(F)F)cc2)C[C@@H]3C)cc(C)n1` [compound 145] returned a melting point of 57.5 °C. In addition, at human mGlu2 receptor, the IC50 was 1.86e-08 M and the maximal response (Emax) was found to be 105%.

On to `COc1cc(-c2cnn3c2C(=O)N(c2ccc(Cl)c(Cl)c2)C[C@@H]3C)cc(C)n1` [compound 146], for which the melting point is 166.8 °C. For the same compound, on human mGlu2 receptor, the IC50 is 1.66e-08 M and the Emax was found to be 105%.

Regarding `COc1ccc(-c2cnn3c2C(=O)N(c2ccc(C(F)(F)F)cc2)C[C@@H]3C)cn1` [compound 150], the melting point is more than 300 °C. Also, on human mGlu2 receptor, the IC50 is 4.68e-07 M and the maximum response (Emax) was determined as 103%.

Turning to `C[C@H]1CN(c2ccc(C(F)(F)F)cc2)C(=O)c2c(-c3ccc(C#N)nc3)cnn21` [compound 151], the melting point was determined as 157.6 °C. Further, at human mGlu2 receptor, the IC50 is 1.2e-06 M and the Emax turned out to be 103%.

`Cc1cc(N2C[C@H](C)n3ncc(-c4ccncc4)c3C2=O)ccc1C(F)(F)F` [compound 153] returned a melting point of 162 °C. In addition, at human mGlu2 receptor, the IC50 was 1.45e-08 M and the Emax worked out at 103%.

For `C[C@H]1CN(c2ccc(C(F)(F)F)c(C#N)c2)C(=O)c2c(-c3ccncc3)cnn21` [compound 155], the melting point was 101.8 °C. Moreover, on human mGlu2 receptor, the IC50 is 8.13e-08 M and the Emax is 103%.

For `Cc1cc(-c2cnn3c2C(=O)N(c2ccc(C(F)(F)F)c(C)c2)C[C@@H]3C)cc(C)n1` [compound 157], the melting point stood at 158.9 °C. Besides, at human mGlu2 receptor, the IC50 is 8.71e-09 M and the maximal response (Emax) stood at 104%.

Regarding `COCc1cc(N2C[C@H](C)n3ncc(-c4ccnc(C)c4)c3C2=O)ccc1C(F)(F)F` [compound 158], the melting point amounted to 48.2 °C. On human mGlu2 receptor, the IC50 was 2.51e-08 M and the Emax stood at 106%.

For the compound `Cc1cc(-c2cnn3c2C(=O)N(c2cc(Cl)cc(Cl)c2)C[C@@H]3C)ccn1` [compound 159], the melting point came out at 71.5 °C. On human mGlu2 receptor, the IC50 is 1.35e-08 M and the Emax was determined as 104%.

On to `Cc1cc(-c2cnn3c2C(=O)N(c2ccc(OCC(F)(F)F)cc2)C[C@@H]3C)ccn1` [compound 160], for which the melting point worked out at 129.5 °C. Further, on human mGlu2 receptor, the IC50 was 1.07e-07 M and the Emax worked out at 106%.

`Cc1cc(-c2cnn3c2C(=O)N(c2ccc(C(F)F)cc2)C[C@@H]3C)ccn1` [compound 162] displayed a melting point of 185.9 °C. On human mGlu2 receptor, the IC50 was 1.29e-07 M and the Emax was found to be 102%.

In turn, `C[C@H]1CN(c2ccc(Cl)c(Cl)c2)C(=O)c2c(-c3ccnc(F)c3)cnn21` [compound 164] yielded a melting point of 170.3 °C. In addition, at human mGlu2 receptor, the IC50 was 5.5e-09 M and the maximal response (Emax) is 107%.

For the compound `Cc1cc(-c2cnn3c2C(=O)N(c2ccc(OC(F)F)c(Cl)c2)C[C@@H]3C)ccn1` [compound 168], the melting point came to 108.5 °C. Further, at human mGlu2 receptor, the IC50 was 2.51e-08 M and the maximum response (Emax) worked out at 106%.

`Cc1cc(-c2cnn3c2C(=O)N(c2ccc(Cl)c(OC(F)(F)F)c2)C[C@@H]3C)ccn1` [compound 169] showed a melting point of 64.7 °C. At human mGlu2 receptor, the IC50 was 6.03e-09 M and the Emax stood at 105%.

Take `Cc1cc(-c2cnn3c2C(=O)N(c2ccc(C(F)(F)F)cc2)CC3(C)C)ccn1` [compound 171]: the melting point was determined as 158.8 °C. For the same compound, at human mGlu2 receptor, the IC50 was 1.7e-05 M and the maximal effect (Emax) stood at 94%.

Take `Cc1cc(-c2cnn3c2C(=O)N(c2ccc(C(F)F)c(Cl)c2)C[C@@H]3C)ccn1` [compound 174]: the melting point was determined as 127.5 °C. Further, on human mGlu2 receptor, the IC50 was 1e-08 M and the maximal effect (Emax) amounted to 105%.

On to `C[C@H]1CN(c2ccc(C(F)(F)F)cc2)C(=O)c2c(-c3ccnc(N4CCNCC4)c3)cnn21.Cl` [compound 175, (7S)-7-Methyl-3-(2-piperazin-1-yl-4-pyridyl)-5-[4-(trifluoromethyl)phenyl]-6,7-dihydropyrazolo[1,5-a]pyrazin-4-one hydrochloride salt], for which the melting point turned out to be 220.8 °C. Moreover, at human mGlu2 receptor, the IC50 is 1.35e-06 M and the Emax was 102%.

The compound `C[C@H]1CN(c2ccc(C(F)(F)F)cc2)C(=O)c2c(-c3ccc(N4CCNCC4)nc3)cnn21` [compound 176, (7S)-7-Methyl-3-(6-piperazin-1-yl-3-pyridyl)-5-[4-(trifluoromethyl)phenyl]-6,7-dihydropyrazolo[1,5-a]pyrazin-4-one] displayed a melting point of more than 300 °C. On human mGlu2 receptor, the IC50 is 6.31e-06 M and the Emax came out at 85%.

With `CNc1cc(-c2cnn3c2C(=O)N(c2ccc(C(F)(F)F)c(OC)c2)C[C@@H]3C)ccn1` [compound 183], the melting point amounted to 125.6 °C. For the same compound, at human mGlu2 receptor, the IC50 is 2.29e-08 M and the maximal response (Emax) came out at 103%.

As for `Cc1cc(-c2cnn3c2C(=O)N(c2ccc(C(F)(F)F)c(Cl)n2)C[C@@H]3C)ccn1` [compound 188, (7S)-5-[6-chloro-5-(trifluoromethyl)-2-pyridyl]-7-methyl-3-(2-methyl-4-pyridyl)-6,7-dihydropyrazolo[1,5-a]pyrazin-4-one], the melting point was found to be 161.4 °C. Moreover, at human mGlu2 receptor, the IC50 is 4.07e-09 M and the Emax was 108%.

Compound `CCOc1nc(N2C[C@H](C)n3ncc(-c4ccnc(C)c4)c3C2=O)ccc1C(F)(F)F` [compound 189, (7S)-5-[6-Ethoxy-5-(trifluoromethyl)-2-pyridyl]-7-methyl-3-(2-methyl-4-pyridyl)-6,7-dihydropyrazolo[1,5-a]pyrazin-4-one] displayed a melting point of 142.4 °C. Moreover, on human mGlu2 receptor, the IC50 was 4.07e-08 M and the maximal response (Emax) was found to be 102%.

Turning to `CCOc1ccc(N2C[C@H](C)n3ncc(-c4ccnc(C)c4)c3C2=O)nc1F` [compound 191], the melting point turned out to be 60.7 °C. For the same compound, on human mGlu2 receptor, the IC50 was 1.07e-06 M and the maximal effect (Emax) worked out at 109%.

Regarding `C[C@H]1CN(c2ccc(C(F)(F)F)cn2)C(=O)c2c(-c3ccnc(F)c3)cnn21` [compound 197], the melting point worked out at 146.6 °C. For the same compound, on human mGlu2 receptor, the IC50 is 1.51e-07 M and the Emax is 104%.

`Cc1cc(-c2cnn3c2C(=O)N(c2cc(Cl)c(C(F)(F)F)cn2)C[C@@H]3C)ccn1` [compound 204, (7S)-5-[4-Chloro-5-(trifluoromethyl)-2-pyridyl]-7-methyl-3-(2-methyl-4-pyridyl)-6,7-dihydropyrazolo[1,5-a]pyrazin-4-one]: the melting point worked out at 292.8 °C. In addition, at human mGlu2 receptor, the IC50 is 4.9e-09 M and the maximal effect (Emax) was 107%.

`CCOc1nc(N2C[C@H](C)n3ncc(-c4cc(C)nc(C)c4)c3C2=O)ccc1C(F)(F)F` [compound 205]: the melting point was 179.2 °C. For the same compound, on human mGlu2 receptor, the IC50 was 1.02e-08 M and the Emax was found to be 102%.

`COc1nc(N2C[C@H](C)n3ncc(-c4ccnc(C)c4)c3C2=O)ccc1C(F)(F)F` [compound 207] showed a melting point of 147.6 °C. Moreover, on human mGlu2 receptor, the IC50 is 3.8e-09 M and the Emax was found to be 109%.

The compound `CCOc1nc(N2C[C@H](C)n3ncc(-c4ccncc4)c3C2=O)ccc1C(F)(F)F` [compound 208] returned a melting point of 141.3 °C. For the same compound, at human mGlu2 receptor, the IC50 was 2.24e-08 M and the maximal response (Emax) stood at 107%.

Source of the values: patent US10106542B2, “Substituted 6,7-dihydropyrazolo[1,5-a]pyrazines as negative allosteric modulators of mGluR2 receptors” (Janssen Pharmaceutica NV, priority 2013, dated 2018).
